# Key:
# Format in all cases: in vivo
# [1] = tested on: green peach aphid (Myzus persicae); experiment: Myzus persicae oral test; conditions: 120 h, read-out: activity (mortality)
# Method in brief: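 Five-day oral feeding assay measuring percent mortality of a mixed aphid population that draws compound-containing sugared IPL41 medium through sealing parafilm; the test preparation derives from 1 part compound per 100 parts acetone, diluted with water.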
# [2] = tested on: adult engorged female ticks (Rhipicephalus microplus); experiment: Rhipicephalus (Boophilus) microplus injection test; conditions: 168 h, application rate 4 μg/tick, egg deposition after 7 days, read-out: activity (efficacy: infertile eggs)
# Method in brief: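 Compound in DMSO (10 mg per 0.5 mL, then diluted with DMSO to test concentration); 1 μL injected into the abdomen of each of five engorged females, then held in a climate chamber. Fertile egg deposition checked at 7 days; efficacy 100% = all eggs infertile, 0% = all fertile.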
# [3] = tested on: green peach aphid (Myzus persicae); experiment: Myzus persicae spray test; conditions: foliar, 120 h, application rate 100 g/ha, after 5 days, Chinese cabbage leaf disks, read-out: activity (mortality)
# Method in brief: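 Percent kill was recorded 5 days after spraying. Test solutions, prepared with solvent and diluted in 1000 ppm emulsifier water, were applied to Brassica pekinensis leaf disks carrying mixed-instar green peach aphids.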
# [4] = tested on: adult unfed cat fleas (Ctenocephalides felis); experiment: Ctenocephalides felis oral test; conditions: 48 h, read-out: activity (mortality)
# Protocol: Ctenocephalides felis—Oral Test
# Solvent: dimethyl sulfoxide
# To produce a suitable preparation of active compound, 10 mg of active compound are dissolved in 0.5 mL solvent, and the concentrate is diluted with citrated cattle blood to the desired concentration.
# Approximately 20 adult unfed cat fleas (Ctenocephalides felis) are placed in a flea chamber whose top and bottom is covered with gauze. A chamber whose bottom is sealed with parafilm, is filled with the blood-compound solution and placed on top of the flea chamber, so that the fleas can suck the blood. The blood chamber is heated to 37° C. whereas the flea chamber is kept at room temperature.
# After 2 days mortality in % is determined. 100% means all the fleas have been killed; 0% means none of the fleas have been killed.
# [5] = tested on: adult mosquitoes Aedes aegypti strain MONHEIM; experiment: Aedes aegypti test (AEDSAE surface treatment & contact assay); conditions: surface concentration 20 mg/m^2, exposure 30 minutes, 24 hours after contact, read-out: efficacy (mortality)
# Protocol: Aedes aegypti Test (AEDSAE Surface Treatment & Contact Assay)
# Solvent: Aceton+2000 ppm rapeseed oil methyl ester (RME)
# In order to produce a sufficient, active ingredient containing solution it is necessary to solve the test compound in the solvent-mix (acetone at 2 mg/ml/RME 2000 ppm). This solution is pipetted onto a glazed tile and after evaporation of the acetone, adult mosquitoes of the species Aedes aegypti strain MONHEIM are placed onto the dried surface. The exposure time is 30 minutes.
# Mortality in percent (%) is determined 24 hours after contact of the insects to the treated surface. 100% mortality means that all tested insects are dead, whereas 0% means that no insect died.
# [6] = tested on: fall armyworm larvae (Spodoptera frugiperda); experiment: Spodoptera frugiperda spray test; conditions: 168 h, application rate 100 g/ha, after 7 days, maize leaf sections
# Method in brief: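 Percent larval kill read at day 7 on Zea mays leaf pieces that were spray-treated and, after drying, infested. Spray preparations made by dilution with emulsifier-containing water (1000 ppm).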
# [7] = tested on: Rhipicephalus (Boophilus) microplus larvae (strain Parkhurst, resistant against synthetic pyrethroids); experiment: Rhipicephalus (Boophilus) microplus in-vitro contact test, larval cattle tick; conditions: after 48 hours, read-out: activity (efficacy: larvae dead or moribund); for pest or weed control at 1 µg/cm2, 100 g/ha: application rate 1 μg/cm^2 (=100 g/ha); for pest or weed control at 5 µg/cm2, 500 g/ha: application rate 5 μg/cm^2 (=500 g/ha)
# Method in brief: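 Pyrethroid-resistant Parkhurst larvae, 20–50 per tube, were kept 48 h at 27 °C and 85% relative humidity in glass tubes whose inner walls carried a dried acetone film of compound (900 ppm giving 5 μg/cm^2). Dead or moribund larvae, judged by loss of negative geotactic behavior, set percent efficacy.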
# [8] = tested on: adult brown dog ticks (Rhipicephalus sanguineus); experiment: Rhipicephalus sanguineus in-vitro contact test, adult brown dog ticks; conditions: application rate 5 μg/cm^2 (=500 g/ha), after 48 hours, read-out: activity (efficacy: ticks dead or moribund)
# Method in brief: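 Efficacy is % of adult ticks dead or moribund 48 h after confinement at room temperature in tubes wall-coated from acetone (5 μg/cm² at 900 ppm). Scoring by heat challenge at 45-50 °C up to 5 min; immotile or uncoordinated ticks failing to climb count as affected.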
# [9] = tested on: adult cat fleas (Ctenocephalides felis); experiment: Ctenocephalides felis in-vitro contact test, adult cat flea; conditions: application rate 5 μg/cm^2 (=500 g/ha), after 48 hours, read-out: activity (efficacy: fleas dead or moribund)
# Method in brief: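 After 48 h of room-temperature exposure in tubes whose walls carried dried compound residue (5 μg/cm^2, from 900 ppm acetone solution), adult cat fleas (5-10 per tube) were heat-challenged at 45-50° C up to 5 min. Fleas unable to climb away were counted dead or moribund, expressed as % efficacy.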
# [10] = tested on: larvae of the banded cucumber beetle (Diabrotica balteata); experiment: Diabrotica balteata spray test; conditions: 168 h, application rate 100 g/ha (=32 μg/well), after 7 days, wheat seeds, read-out: activity (efficacy: seedlings grown)
# Method in brief: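 Efficacy (%) read 7 days after infesting treated seedlings with 10-20 banded cucumber beetle larvae, 100% meaning growth as in uninfected untreated control and 0% no growth. Test solutions in water containing 1000 ppm emulsifier were sprayed onto wheat seeds germinated for 1 day on agar.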
# [11] = tested on: larvae of the southern green stink bug (Nezara viridula); experiment: Nezara viridula spray test; conditions: 96 h, application rate 100 g/ha, after 4 days, barley plants
# Method in brief: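 Barley plants sprayed with the active compound in emulsifier-containing water, then infested with stink bug larvae. Mortality scored in % after 4 days, with 100% meaning all insects killed.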
SMILES,mortality at 4 ppm [1] [%],pest or weed control at 0.004 mg [2] [%],mortality at 100 g/ha [3] [%],mortality at 100 ppm [4] [%],mortality at 20 mg/m2 [5] [%],mortality at 100 g/ha [6] [%],"pest or weed control at 1 µg/cm2, 100 g/ha [7] [%]","pest or weed control at 5 µg/cm2, 500 g/ha [7] [%]","pest or weed control at 5 µg/cm2, 500 g/ha [8] [%]",pest or weed control at 5 µg/cm2 [9] [%],"pest or weed control at 32 µg/disc, 100 g/ha [10] [%]",mortality at 100 g/ha [11] [%]
Cc1nc([C@H](C)NC(=O)c2cc(Cl)cc(C(F)(F)F)c2)n(-c2ccc(C(=O)N3CC(F)C3)cn2)n1 [Example I-20],100,100,90,100,80 to 100,100,90,100,100,100,,
Cc1nc([C@H](C)NC(=O)c2cc(Cl)cc(C(F)(F)F)c2)n(-c2ccc(C(=O)N3CCC3)cn2)n1 [Example I-23],100,100,90,90,80 to 100,100,90,90,100,100,,
COC1CN(C(=O)c2ccc(-n3nc(C)nc3[C@H](C)NC(=O)c3cc(Cl)cc(C(F)(F)F)c3)nc2)C1 [Example I-24],100,100,100,80,80 to 100,100,100,100,100,90,,
C[C@@H]1CN(C(=O)c2ccc(-n3ncnc3[C@H](C)NC(=O)c3cc(Cl)cc(C(F)(F)F)c3)nc2)CCO1 [Example I-32],100,100,100,90,,100,100,100,100,100,100,
C[C@H](NC(=O)c1cc(Cl)cc(C(F)(F)F)c1)c1ncnn1-c1ccc(C(=O)N2CCOC[C@H]2C)cn1 [Example I-33],,100,,100,,100,100,100,100,,,90
C[C@@H]1CN(C(=O)c2ccc(-n3ncnc3[C@H](C)NC(=O)c3cc(Cl)cc(C(F)(F)F)c3)nc2)C[C@@H](C)O1 [Example I-40],100,100,90,90,80 to 100,,100,100,100,,100,

# From patent US20230058623A1, “NOVEL HETEROARYL-TRIAZOLE COMPOUNDS AS PESTICIDES” (Bayer Aktiengesellschaft, priority 2019, published 2023)
